Test results as given in PubChem BioAssay (NCI).
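Dose response: 5 concentrations. Exposure: 48 h. Format: 96-well plates. Endpoint: linear interpolation; highest concentration if not reached. TGI: total growth inhibition.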

What was measured:
Assay in all cases: inhibition of tumour cell growth, NCI panel, 48 h
MDA-N = system: MDA-N
DU-145 prostate = system: DU-145 prostate
IGROV1 ovarian = system: IGROV1 ovarian
RPMI-8226 leukemia = system: RPMI-8226 leukemia
HT29 colon = system: HT29 colon
SNB-75 CNS = system: SNB-75 CNS
SF-539 CNS = system: SF-539 CNS
SK-OV-3 ovarian = system: SK-OV-3 ovarian
786-0 renal = system: 786-0 renal
HL-60(TB) leukemia = system: HL-60(TB) leukemia
RXF 393 renal = system: RXF 393 renal
UO-31 renal = system: UO-31 renal
SF-268 CNS = system: SF-268 CNS
HS 578T breast = system: HS 578T breast
OVCAR-5 ovarian = system: OVCAR-5 ovarian
M14 melanoma = system: M14 melanoma
NCI-H226 lung = system: NCI-H226 lung
OVCAR-3 ovarian = system: OVCAR-3 ovarian
T-47D breast = system: T-47D breast
LOX IMVI melanoma = system: LOX IMVI melanoma
OVCAR-8 ovarian = system: OVCAR-8 ovarian
NCI-H522 lung = system: NCI-H522 lung
U251 CNS = system: U251 CNS
NCI-H23 lung = system: NCI-H23 lung
MDA-MB-435 = system: MDA-MB-435
NCI/ADR-RES ovarian = system: NCI/ADR-RES ovarian
KM12 colon = system: KM12 colon
HOP-62 NSCLC = system: HOP-62 NSCLC
TK-10 renal = system: TK-10 renal
K-562 leukemia = system: K-562 leukemia
NCI-H460 lung = system: NCI-H460 lung
MCF7 breast = system: MCF7 breast
MOLT-4 leukemia = system: MOLT-4 leukemia
HCT-15 colon = system: HCT-15 colon
SF-295 CNS = system: SF-295 CNS
CCRF-CEM leukemia = system: CCRF-CEM leukemia
UACC-257 melanoma = system: UACC-257 melanoma
SW-620 colon = system: SW-620 colon
OVCAR-4 ovarian = system: OVCAR-4 ovarian
HOP-92 NSCLC = system: HOP-92 NSCLC
EKVX NSCLC = system: EKVX NSCLC
SR leukemia = system: SR leukemia
A498 renal = system: A498 renal
CAKI-1 renal = system: CAKI-1 renal
SK-MEL-2 melanoma = system: SK-MEL-2 melanoma
SK-MEL-5 melanoma = system: SK-MEL-5 melanoma
ACHN renal = system: ACHN renal
PC-3 prostate = system: PC-3 prostate
MDA-MB-231 breast = system: MDA-MB-231 breast
HCC-2998 colon = system: HCC-2998 colon
HCT-116 colon = system: HCT-116 colon
SK-MEL-28 melanoma = system: SK-MEL-28 melanoma
UACC-62 melanoma = system: UACC-62 melanoma
SN12C renal = system: SN12C renal
A549 NSCLC = system: A549 NSCLC
SNB-19 CNS = system: SNB-19 CNS
COLO 205 colon = system: COLO 205 colon
MALME-3M melanoma = system: MALME-3M melanoma
BT-549 breast = system: BT-549 breast

COc1ccc(-c2nc3cc(C(F)(F)F)ccc3n2CC2CCCN3CCCCC23)cc1 (centres undefined)
TGI (MDA-N): 33.4 µM
TGI (DU-145 prostate): 30.8 µM
TGI (IGROV1 ovarian): 26.9 µM
TGI (RPMI-8226 leukemia): 28.4 µM
TGI (HT29 colon): 26.1 µM
TGI (SNB-75 CNS): 28.8 µM
TGI (SF-539 CNS): 30.5 µM
TGI (SK-OV-3 ovarian): 33.7 µM
TGI (786-0 renal): 35.6 µM
TGI (HL-60(TB) leukemia): 30.6 µM
TGI (RXF 393 renal): 33.8 µM
TGI (UO-31 renal): 38.8 µM
TGI (SF-268 CNS): 28.6 µM
TGI (HS 578T breast): 31.1 µM
TGI (OVCAR-5 ovarian): 62.9 µM
TGI (M14 melanoma): 25.6 µM
TGI (NCI-H226 lung): 32.3 µM
TGI (OVCAR-3 ovarian): 37.1 µM
TGI (T-47D breast): 48.2 µM
TGI (LOX IMVI melanoma): 28.3 µM
TGI (OVCAR-8 ovarian): 30.8 µM
TGI (NCI-H522 lung): 29.2 µM
TGI (U251 CNS): 30.7 µM
TGI (NCI-H23 lung): 29 µM
TGI (MDA-MB-435): 34.3 µM
TGI (NCI/ADR-RES ovarian): 27.1 µM
TGI (KM12 colon): 45.2 µM
TGI (HOP-62 NSCLC): 38.5 µM
TGI (TK-10 renal): 30.2 µM
TGI (K-562 leukemia): 28 µM
TGI (NCI-H460 lung): 29.2 µM
TGI (MCF7 breast): 25.9 µM
TGI (MOLT-4 leukemia): 28.7 µM
TGI (HCT-15 colon): 29.1 µM
TGI (SF-295 CNS): 36.6 µM
TGI (CCRF-CEM leukemia): 31.4 µM
TGI (UACC-257 melanoma): 26.7 µM
TGI (SW-620 colon): 28.5 µM
TGI (OVCAR-4 ovarian): 39.7 µM
TGI (HOP-92 NSCLC): 27.9 µM
TGI (EKVX NSCLC): 24.5 µM
TGI (SR leukemia): 31.3 µM
TGI (A498 renal): 26.2 µM
TGI (CAKI-1 renal): 59.6 µM
TGI (SK-MEL-2 melanoma): 28.9 µM
TGI (SK-MEL-5 melanoma): 27.5 µM
TGI (ACHN renal): 29 µM
TGI (PC-3 prostate): 26.5 µM
TGI (MDA-MB-231 breast): 27.7 µM
TGI (HCC-2998 colon): 24.5 µM
TGI (HCT-116 colon): 33.6 µM
TGI (SK-MEL-28 melanoma): 28.2 µM

NC(=O)C1N=NSC1NC(=O)c1ccc([N+](=O)[O-])cc1 (centres undefined)
TGI (MDA-N): > 100 µM
TGI (DU-145 prostate): > 100 µM
TGI (IGROV1 ovarian): > 100 µM
TGI (RPMI-8226 leukemia): > 100 µM
TGI (HT29 colon): > 100 µM
TGI (SNB-75 CNS): > 100 µM
TGI (SK-OV-3 ovarian): > 100 µM
TGI (UACC-62 melanoma): > 100 µM
TGI (786-0 renal): > 100 µM
TGI (SN12C renal): > 100 µM
TGI (RXF 393 renal): > 100 µM
TGI (UO-31 renal): > 100 µM
TGI (A549 NSCLC): > 100 µM
TGI (SF-268 CNS): > 100 µM
TGI (HS 578T breast): > 100 µM
TGI (OVCAR-5 ovarian): > 100 µM
TGI (M14 melanoma): > 100 µM
TGI (NCI-H226 lung): > 100 µM
TGI (OVCAR-3 ovarian): > 100 µM
TGI (SNB-19 CNS): > 100 µM
TGI (T-47D breast): > 100 µM
TGI (OVCAR-8 ovarian): > 100 µM
TGI (U251 CNS): > 100 µM
TGI (NCI-H23 lung): > 100 µM
TGI (MDA-MB-435): > 100 µM
TGI (NCI/ADR-RES ovarian): > 100 µM
TGI (KM12 colon): > 100 µM
TGI (HOP-62 NSCLC): > 100 µM
TGI (TK-10 renal): > 100 µM
TGI (K-562 leukemia): > 100 µM
TGI (NCI-H460 lung): > 100 µM
TGI (MCF7 breast): > 100 µM
TGI (MOLT-4 leukemia): > 100 µM
TGI (HCT-15 colon): > 100 µM
TGI (SF-295 CNS): > 100 µM
TGI (CCRF-CEM leukemia): > 100 µM
TGI (UACC-257 melanoma): > 100 µM
TGI (SW-620 colon): > 100 µM
TGI (OVCAR-4 ovarian): > 100 µM
TGI (EKVX NSCLC): > 100 µM
TGI (CAKI-1 renal): > 100 µM
TGI (COLO 205 colon): > 100 µM
TGI (SK-MEL-2 melanoma): 65 µM
TGI (SK-MEL-5 melanoma): 69.8 µM
TGI (ACHN renal): > 100 µM
TGI (MALME-3M melanoma): > 100 µM
TGI (BT-549 breast): > 100 µM
TGI (PC-3 prostate): > 100 µM
TGI (MDA-MB-231 breast): > 100 µM
TGI (HCC-2998 colon): > 100 µM
TGI (HCT-116 colon): > 100 µM
TGI (SK-MEL-28 melanoma): > 100 µM

C#CC(=O)OCC#CCOC(=O)C#C
TGI (MDA-N): > 100 µM
TGI (DU-145 prostate): 90.3 µM
TGI (RPMI-8226 leukemia): 34.3 µM
TGI (HT29 colon): 42.7 µM
TGI (SF-539 CNS): 28.8 µM
TGI (SK-OV-3 ovarian): > 100 µM
TGI (UACC-62 melanoma): 56.7 µM
TGI (786-0 renal): 31.4 µM
TGI (SN12C renal): 82.3 µM
TGI (RXF 393 renal): 36.9 µM
TGI (UO-31 renal): 23.1 µM
TGI (A549 NSCLC): > 100 µM
TGI (SF-268 CNS): > 100 µM
TGI (HS 578T breast): 86.5 µM
TGI (M14 melanoma): 49.5 µM
TGI (NCI-H226 lung): 40.3 µM
TGI (OVCAR-3 ovarian): 34.7 µM
TGI (SNB-19 CNS): > 100 µM
TGI (T-47D breast): 60.2 µM
TGI (LOX IMVI melanoma): 2.63 µM
TGI (OVCAR-8 ovarian): 96 µM
TGI (NCI-H522 lung): 9.81 µM
TGI (U251 CNS): 35.6 µM
TGI (NCI-H23 lung): 55 µM
TGI (MDA-MB-435): > 100 µM
TGI (NCI/ADR-RES ovarian): 76.5 µM
TGI (KM12 colon): 44 µM
TGI (HOP-62 NSCLC): 46.1 µM
TGI (TK-10 renal): 37.9 µM
TGI (NCI-H460 lung): > 100 µM
TGI (MCF7 breast): 44.2 µM
TGI (HCT-15 colon): 36.5 µM
TGI (SF-295 CNS): > 100 µM
TGI (CCRF-CEM leukemia): 35.4 µM
TGI (UACC-257 melanoma): > 100 µM
TGI (SW-620 colon): 40.6 µM
TGI (HOP-92 NSCLC): 34.8 µM
TGI (EKVX NSCLC): 29.9 µM
TGI (A498 renal): > 100 µM
TGI (CAKI-1 renal): 39.1 µM
TGI (COLO 205 colon): 32.4 µM
TGI (SK-MEL-2 melanoma): 40.1 µM
TGI (SK-MEL-5 melanoma): > 100 µM
TGI (ACHN renal): 33 µM
TGI (MALME-3M melanoma): 38 µM
TGI (BT-549 breast): 36.6 µM
TGI (PC-3 prostate): > 100 µM
TGI (MDA-MB-231 breast): 75.6 µM
TGI (HCC-2998 colon): 39.6 µM
TGI (HCT-116 colon): 35.7 µM

N=C(N)SCc1ccc(N=C=S)cc1
TGI (MDA-N): 26.6 µM
TGI (DU-145 prostate): 29.5 µM
TGI (IGROV1 ovarian): 26.7 µM
TGI (RPMI-8226 leukemia): > 100 µM
TGI (HT29 colon): 40.3 µM
TGI (SNB-75 CNS): 21.9 µM
TGI (SF-539 CNS): 27.3 µM
TGI (SK-OV-3 ovarian): 31.1 µM
TGI (UACC-62 melanoma): 23.7 µM
TGI (786-0 renal): 26.7 µM
TGI (HL-60(TB) leukemia): 35.9 µM
TGI (SN12C renal): 28.5 µM
TGI (RXF 393 renal): 17.8 µM
TGI (UO-31 renal): 25 µM
TGI (A549 NSCLC): 30.5 µM
TGI (SF-268 CNS): 35.1 µM
TGI (HS 578T breast): 42.1 µM
TGI (OVCAR-5 ovarian): 27.6 µM
TGI (NCI-H226 lung): 34.6 µM
TGI (SNB-19 CNS): 26.7 µM
TGI (T-47D breast): 34.9 µM
TGI (LOX IMVI melanoma): 28 µM
TGI (OVCAR-8 ovarian): 31.6 µM
TGI (NCI-H522 lung): 21.6 µM
TGI (U251 CNS): 29 µM
TGI (NCI-H23 lung): 27.5 µM
TGI (MDA-MB-435): 26 µM
TGI (NCI/ADR-RES ovarian): 43 µM
TGI (KM12 colon): 27.6 µM
TGI (HOP-62 NSCLC): 32.5 µM
TGI (TK-10 renal): 28.1 µM
TGI (K-562 leukemia): 44 µM
TGI (NCI-H460 lung): 30.4 µM
TGI (MOLT-4 leukemia): > 100 µM
TGI (HCT-15 colon): 24.6 µM
TGI (SF-295 CNS): 31.2 µM
TGI (CCRF-CEM leukemia): > 100 µM
TGI (UACC-257 melanoma): 25.8 µM
TGI (SW-620 colon): 29.1 µM
TGI (OVCAR-4 ovarian): 27.4 µM
TGI (HOP-92 NSCLC): 24.2 µM
TGI (EKVX NSCLC): 35.5 µM
TGI (SR leukemia): > 100 µM
TGI (A498 renal): 26.9 µM
TGI (CAKI-1 renal): 25.4 µM
TGI (COLO 205 colon): 28.2 µM
TGI (SK-MEL-2 melanoma): 23 µM
TGI (SK-MEL-5 melanoma): 27.2 µM
TGI (ACHN renal): 26.1 µM
TGI (MALME-3M melanoma): 27.4 µM
TGI (PC-3 prostate): 30.1 µM
TGI (MDA-MB-231 breast): 20.1 µM
TGI (HCC-2998 colon): 30.4 µM
TGI (HCT-116 colon): 27.2 µM
TGI (SK-MEL-28 melanoma): 28.7 µM
